Read-outs that look alike come from different tables or passages of the source.
Key:
[1] = test system: MB 5393 (COL), a methicillin-resistant S. aureus strain; experiment: Determination of minimum and synergistic inhibitory concentration; assay type: cell-based; conditions: for SIC: presence of imipenem (4 μg/mL); for MIC: Staphylococcus aureus
Method: MB 5393 (COL), a methicillin-resistant S. aureus strain, was inoculated into Trypticase Soy Broth (TSB, BBL) and grown in a humidified incubator for 18 hours with rotary shaking at 220 rpm and kept on ice until used.
A quantity of imipenem (Merck Chemical Collection) was weighed out and dissolved into sterile 10 mM MOPS buffer at pH 7. This solution was diluted to 1600 μg/mL, 200 μg/mL, and 25 μg/mL and filter-sterilized through a 0.45 μm filter. From these solutions, seven 1:2 serial dilutions were prepared using sterile 10 mM MOPS buffer at pH 7. The final concentration ranges tested were 128 to 2 μg/mL, 16 to […], and 2 to 0.03 μg/mL. The solutions were kept refrigerated until used.
Test compounds (EXAMPLES 1-67) were prepared in sterile water or DMSO at a concentration of 3.2 mg/mL. From this solution, 11 serial 1:2 dilutions were prepared using sterile water. The final concentration range tested was 64 to 0.0313 μg/mL. The solutions were kept refrigerated until used.
Two-fold serial dilutions of test compounds were tested in the presence and absence of subinhibitory concentrations of imipenem (4 μg/mL) in 96-well U bottom microliter dishes in microbiological growth media. The plates were inoculated with bacterial cells to a final concentration of ˜5×10^5 CFU/mL. Test plates were incubated stationery at 37° C. for 22-24 hours.
After 22 hours of incubation, the Minimum inhibitory concentrations (MICs) were determined, defined as the lowest concentration of antibiotic that prevented all visible growth in the absence of imipenem. Synergistic inhibitory concentrations (SICs) were determined, defined as the lowest concentration of antibiotic that prevented all visible growth in the presence of imipenen.

SpsB = target: T1, SpsB (Staphylococcus aureus, UniProt P0A070); experiment: Inhibition of SpsB enzyme activity (fluorescence-based assay, bacterial membrane fraction); assay type: biochemical
T1 construct: using a bacterial membrane fraction as a source of SpsB; from tissue
T1 sequence (P0A070 1-191): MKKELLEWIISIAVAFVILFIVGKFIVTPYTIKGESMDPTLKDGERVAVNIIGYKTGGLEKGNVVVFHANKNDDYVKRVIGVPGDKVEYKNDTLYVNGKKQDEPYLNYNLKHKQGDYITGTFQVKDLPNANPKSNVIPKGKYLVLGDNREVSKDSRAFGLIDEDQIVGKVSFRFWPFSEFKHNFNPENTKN
Method: Signal peptidase enzyme activity was measured in a fluorescence-based assay using a bacterial membrane fraction as a source of SpsB (See Bruton et al., 2003, Eur J Med Chem 38:351-356). The SpsB substrate is a synthetic lipopeptide, decanoyl-K(DABCYL)-TPTAKA↓ASKKD-D(EDANS)—NH2 (prepared by JPT Peptide Technologies, Berlin, Germany). Assays were performed with 20 μM peptide substrate (Km≈5 μM) and reactions were initiated with enzyme addition (final protein concentration of 0.6 mg/mL). SpsB mediated cleavage of the peptide substrate was detected as an increase in fluorescence (excitation 340 nm/emission 460 nm).

[2] = MRSA COL, absence of imipenem, 22 hours, read-out: MIC

Row | Structure (SMILES) | SIC ([1]; MRSA COL, 22 hours) | MIC ([1]; MRSA, 22 h) [µg/mL] | IC50 (SpsB) [nM] | MIC [1, 2] [µg/mL]
1 | C[C@@H]1NC(=O)[C@@H](N(C)C(=O)[C@H](CCCCN)NC(=O)CCNC(=O)c2ccc(-c3ccc(C(C)(C)C)cc3)cc2)c2ccc(O)c(c2)-c2cc(ccc2O)C[C@@H](C(=O)O)NC1=O [EXAMPLE 42] | H (H: SIC 0.062-1) | < 1 | < 10 | –
2 | CCCCCCCCCc1ccc(-c2nc(C(=O)NCCC(=O)N[C@@H](CCCCN)C(=O)N(C)[C@@H]3C(=O)N[C@@H](C)C(=O)N[C@H](C(=O)O)Cc4ccc(O)c(c4)-c4cc3ccc4O)cs2)cc1 [EXAMPLE 41] | G (G: SIC <0.0625) | < 1 | < 10 | –
3 | CCCc1ccc(-c2ccc(C(=O)NCCC(=O)N3CCC[C@H]3C(=O)N(C)[C@@H]3C(=O)N[C@@H](C)C(=O)N[C@H](C(=O)O)Cc4ccc(O)c(c4)-c4cc3ccc4O)cc2)cc1 [EXAMPLE 12, (8S,11S,14S)-3,18-dihydroxy-11-methyl-14-(methyl{[(2S)-1-(3-{[(4′-propylbiphenyl-4-yl)carbonyl]amino}propanoyl)pyrrolidin-2-yl]carbonyl}amino)-10,13-dioxo-9,12-diazatricyclo[13.3.1.1^2,6]icosa-1(19),2(20),3,5,15,17-hexaene-8-carboxylic acid] | H (H: SIC 0.062-1) | – | 10 to 50 | > 8
4 | CCCCCCCCCc1ccc(-c2cccc3c(C(=O)NCCC(=O)N[C@@H](CCCCN)C(=O)N(C)[C@@H]4C(=O)N[C@@H](C)C(=O)N[C@H](C(=O)O)Cc5ccc(O)c(c5)-c5cc4ccc5O)cnn23)cc1 [EXAMPLE 65] | G (G: SIC <0.0625) | 1 to 8 | 10 to 50 | –
5 | C[C@@H]1NC(=O)[C@@H](N(C)C(=O)[C@H](CCCCN)NC(=O)CCNC(=O)c2ccc(-c3ccc(CC4CCCCC4)cc3)cc2)c2ccc(O)c(c2)-c2cc(ccc2O)C[C@@H](C(=O)O)NC1=O [EXAMPLE 27] | G (G: SIC <0.0625) | < 1 | < 10 | –
6 | CCCCCc1ccc(-c2ccc(C(=O)NCCC(=O)N[C@@H](CCCCN)C(=O)N(C)[C@@H]3C(=O)N[C@@H](C)C(=O)N[C@H](C(=O)O)Cc4ccc(O)c(c4)-c4cc3ccc4O)cc2)cc1 [EXAMPLE 35] | G (G: SIC <0.0625) | < 1 | < 10 | –
7 | CCCCCCCCCc1ccc(-c2ccc(C(=O)NCCC(=O)N[C@@H](CCCCN)C(=O)N(C)[C@@H]3C(=O)N[C@@H](C)C(=O)N[C@H](C(=O)O)Cc4ccc(O)c(c4)-c4cc3ccc4O)cc2)cc1.O=C(O)C(F)(F)F [EXAMPLE 16, (5S)-6-[[(7S,10S,13S)-13-carboxy-3,18-dihydroxy-10-methyl-8,11-dioxo-9,12-diazatricyclo[13.3.1.1^2,6]icosa-1(19),2(20),3,5,15,17-hexaen-7-yl](methyl)amino]-5-[(3-{[(4′-nonylbiphenyl-4-yl)carbonyl]amino}propanoyl)amino]-6-oxohexan-1-aminium trifluoroacetate] | G (G: SIC <0.0625) | – | < 10 | < 1
8 | CCCCCCCCCc1ccc(-c2ncc(C(=O)NCCC(=O)N[C@@H](CCCCN)C(=O)N(C)[C@@H]3C(=O)N[C@@H](C)C(=O)N[C@H](C(=O)O)Cc4ccc(O)c(c4)-c4cc3ccc4O)cn2)cc1 [EXAMPLE 26] | G (G: SIC <0.0625) | < 1 | < 10 | –
9 | CCCCCCCCCCc1ccc2cc(C(=O)NCCC(=O)N[C@@H](CCCCNC(C)=O)C(=O)N(C)[C@@H]3C(=O)N[C@@H](C)C(=O)N[C@H](C(=O)O)Cc4ccc(O)c(c4)-c4cc3ccc4O)ccc2c1 [EXAMPLE 33] | G (G: SIC <0.0625) | – | < 10 | > 8
10 | CC(c1ccc(-c2ccc(C(=O)NCCC(=O)N[C@@H](CCCCN)C(=O)N(C)[C@@H]3C(=O)N[C@@H](C)C(=O)N[C@H](C(=O)O)Cc4ccc(O)c(c4)-c4cc3ccc4O)cc2)cc1)C12CC3CC(CC(C3)C1)C2 (stereo partly drawn) [EXAMPLE 22] | G (G: SIC <0.0625) | < 1 | < 10 | –

From patent publication US20130244929A1 (priority 2010, published 2013)
